According to patent US20230365592A1 (Agios Pharmaceuticals, Inc., priority 2022, published 2023):

Target: T1, human PAH with the R408W mutation (Homo sapiens, UniProt P00439, R408W)
T1 construct: expressed in transfected cells
T1 sequence (P00439 1-452 R408W): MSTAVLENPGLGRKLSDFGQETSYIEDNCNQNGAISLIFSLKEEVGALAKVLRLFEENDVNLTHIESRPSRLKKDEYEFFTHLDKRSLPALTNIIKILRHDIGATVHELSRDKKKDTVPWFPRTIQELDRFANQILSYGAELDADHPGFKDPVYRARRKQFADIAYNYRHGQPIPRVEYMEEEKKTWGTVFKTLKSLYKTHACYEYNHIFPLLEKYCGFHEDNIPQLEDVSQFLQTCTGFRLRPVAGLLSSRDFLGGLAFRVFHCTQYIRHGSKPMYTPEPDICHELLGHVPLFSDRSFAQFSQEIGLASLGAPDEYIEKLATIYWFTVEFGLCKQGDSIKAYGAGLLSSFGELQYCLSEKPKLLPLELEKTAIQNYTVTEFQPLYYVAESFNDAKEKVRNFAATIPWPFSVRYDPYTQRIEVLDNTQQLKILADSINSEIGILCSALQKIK
Assay: Cell Based Phenylalanine Flux Assay;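 also: after compound treatment, cells received sepiapterin plus isotope-labelled Phenylalanine for 4 hours, then labelled Tyrosine in the medium was quantified, 10-point 2-fold dilution series run in duplicate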
Conditions: A375 cells expressing R408W PAH; 24 hrs with compound, then 20 µM sepiapterin and 800 µM 13C9,15N-Phenylalanine for 4 hours; 13C-Tyrosine by LC-MS; average where tested multiple times; read-out: AC50

| Compound | AC50 [µM] |
| --- | --- |
| Cn1cc(-c2ncc(C(=O)N3CCc4[nH]cnc4C3c3cc4c(F)cccn4n3)o2)cn1 (centres unmarked) | 1 to 5 |
| O=C(c1nnc(N2CC(F)C2)o1)N1CCc2[nH]cnc2C1c1cc2ccccn2n1 (centres unmarked) | 1 to 5 |
| Cc1c(C2c3nc[nH]c3CCN2C(=O)c2nnc(C(C)(C)F)o2)nn2ccccc12 (centres unmarked) | 1 to 5 |
| O=C(c1nnc(-c2ccccn2)o1)N1CCc2[nH]cnc2C1c1cc2cc(F)ccn2n1 (centres unmarked) | > 5 |
| Cc1c(C2c3nc[nH]c3CCN2C(=O)c2nnc(-c3ccccn3)o2)nn2ccccc12 (centres unmarked) | 1 to 5 |
| CC(C)(F)c1nnc(C(=O)N2CCc3[nH]cnc3[C@H]2c2cc3cc(C(F)(F)F)ccn3n2)o1 (single isomer, unassigned) | 1 to 5 |
| Cc1c(C2c3nc[nH]c3CCN2C(=O)c2nnc(-c3cnn(C)c3C)o2)nn2ccccc12 (centres unmarked) | 1 to 5 |

Next, values leading:

| AC50 [µM] | Compound |
| --- | --- |
| 1 to 5 | COc1cccn2nc(C3c4nc[nH]c4CCN3C(=O)c3ocnc3C(F)F)cc12 (centres unmarked) |
| > 5 | FC(F)(F)c1cccn2nc(C3c4nc[nH]c4CCN3c3nnc(N4CCOCC4)o3)cc12 (centres unmarked) |
| > 5 | O=C(c1nnc(-c2ccc(C(F)(F)F)cn2)o1)N1CCc2[nH]cnc2C1c1cc2ccccn2n1 (centres unmarked) |

Same assay, conditions: A375 cells expressing human PAH R408W; 24 hrs compound incubation; 13C-Tyrosine by LC-MS; average where tested multiple times; read-out: AC50

| Compound | AC50 [µM] |
| --- | --- |
| COCc1ccc2c(C(=O)N3CCc4[nH]cnc4[C@@H]3c3cc4c(C)cccn4n3)cnn2c1 [Example 2437, (R)-(6-(methoxymethyl)pyrazolo[1,5-a]pyridin-3-yl)(4-(4-methylpyrazolo[1,5-a]pyridin-2-yl)-6,7-dihydro-1H-imidazo[4,5-c]pyridin-5(4H)-yl)methanone] | > 5 |
| Cn1ccc(-c2ncc(C(=O)N3CCc4[nH]cnc4[C@@H]3c3cc4c(F)cccn4n3)o2)n1 [Example 2504, (R)-(4-(4-fluoropyrazolo[1,5-a]pyridin-2-yl)-1,4,6,7-tetrahydro-5H-imidazo[4,5-c]pyridin-5-yl)(2-(1-methyl-1H-pyrazol-3-yl)oxazol-5-yl)methanone] | > 5 |
| Cc1cccc2cc([C@@H]3c4nc[nH]c4CCN3C(=O)c3ocnc3C3CC3)nn12 [Example 2070, (S)-(4-cyclopropyloxazol-5-yl)(4-(7-methylpyrazolo[1,5-a]pyridin-2-yl)-1,4,6,7-tetrahydro-5H-imidazo[4,5-c]pyridin-5-yl)methanone] | < 0.5 |

Now from value to molecule:

| AC50 [µM] | Compound |
| --- | --- |
| 0.5 to 1 | Nc1cnc(N2CCc3[nH]cnc3[C@H]2c2cc3c(Cl)cccn3n2)nc1 [Example 1873, (S)-2-(4-(4-chloropyrazolo[1,5-a]pyridin-2-yl)-1,4,6,7-tetrahydro-5H-imidazo[4,5-c]pyridin-5-yl)pyrimidin-5-amine] |
| 0.5 to 1 | Cc1cccc(-c2nnc(N3CCc4[nH]cnc4[C@H]3c3cc4c(C(F)(F)F)cccn4n3)o2)n1 [Example 2357, (S)-2-(6-methylpyridin-2-yl)-5-(4-(4-(trifluoromethyl)pyrazolo[1,5-a]pyridin-2-yl)-1,4,6,7-tetrahydro-5H-imidazo[4,5-c]pyridin-5-yl)-1,3,4-oxadiazole] |
| 0.5 to 1 | Cc1cccc(-c2nnc(N3CCc4[nH]cnc4[C@H]3c3cc4c(C(F)F)cccn4n3)o2)n1 [Example 2347, (S)-2-(4-(4-(difluoromethyl)pyrazolo[1,5-a]pyridin-2-yl)-1,4,6,7-tetrahydro-5H-imidazo[4,5-c]pyridin-5-yl)-5-(6-methylpyridin-2-yl)-1,3,4-oxadiazole] |
| < 0.5 | COc1cccn2nc([C@@H]3c4nc[nH]c4CCN3c3nnc(C(F)(F)F)o3)cc12 [Example 2164, (S)-2-(4-(4-methoxypyrazolo[1,5-a]pyridin-2-yl)-1,4,6,7-tetrahydro-5H-imidazo[4,5-c]pyridin-5-yl)-5-(trifluoromethyl)-1,3,4-oxadiazole] |
| > 5 | CC(C)c1cccn2nc([C@H]3c4nc[nH]c4CCN3c3ccc(C(F)(F)F)cn3)cc12 [Example 2149, (R)-4-(4-isopropylpyrazolo[1,5-a]pyridin-2-yl)-5-(5-(trifluoromethyl)pyridin-2-yl)-4,5,6,7-tetrahydro-1H-imidazo[4,5-c]pyridine] |
| < 0.5 | CC(C)c1cccn2nc([C@@H]3c4nc[nH]c4CCN3c3nnc(C(C)(F)F)o3)cc12 [Example 2231, (S)-2-(1,1-difluoroethyl)-5-(4-(4-isopropylpyrazolo[1,5-a]pyridin-2-yl)-1,4,6,7-tetrahydro-5H-imidazo[4,5-c]pyridin-5-yl)-1,3,4-oxadiazole] |

Same assay, conditions: A375 cells expressing human R408W PAH; 24 hrs compound incubation; 13C-Tyrosine by LC-MS; average where tested multiple times; read-out: AC50

| Compound | AC50 [µM] |
| --- | --- |
| COc1ccc(-c2nnc(C(=O)N3CCc4[nH]cnc4[C@H]3c3cc4c(C)cccn4n3)o2)nc1 [Example 817, (S)-(5-(5-methoxypyridin-2-yl)-1,3,4-oxadiazol-2-yl)(4-(4-methylpyrazolo[1,5-a]pyridin-2-yl)-6,7-dihydro-1H-imidazo[4,5-c]pyridin-5(4H)-yl)methanone] | < 0.5 |
| O=C(c1nnc(-c2cnn(C(F)F)c2)o1)N1CCc2[nH]cnc2[C@H]1c1cc2c(OC(F)(F)F)cccn2n1 [Example 1782, (S)-(5-(1-(difluoromethyl)-1H-pyrazol-4-yl)-1,3,4-oxadiazol-2-yl)(4-(4-(trifluoromethoxy)pyrazolo[1,5-a]pyridin-2-yl)-6,7-dihydro-1H-imidazo[4,5-c]pyridin-5(4H)-yl)methanone] | 0.5 to 1 |
| O=C(c1ocnc1C(F)(F)F)N1CCc2[nH]cnc2[C@H]1c1cc2cccc(C(F)(F)F)n2n1 [Example 1176, (S)-(4-(trifluoromethyl)oxazol-5-yl)(4-(7-(trifluoromethyl)pyrazolo[1,5-a]pyridin-2-yl)-6,7-dihydro-1H-imidazo[4,5-c]pyridin-5(4H)-yl)methanone] | < 0.5 |
| O=C(c1nnc(-c2ncccn2)o1)N1CCc2[nH]cnc2[C@@H]1c1cc2c(F)cccn2n1 [Example 1312, (R)-(4-(4-fluoropyrazolo[1,5-a]pyridin-2-yl)-6,7-dihydro-1H-imidazo[4,5-c]pyridin-5(4H)-yl)(5-(pyrimidin-2-yl)-1,3,4-oxadiazol-2-yl)methanone] | 1 to 5 |
| O=C(c1nnc(-c2ncccn2)o1)N1CCc2[nH]cnc2[C@H]1c1cc2c(C(F)F)cccn2n1 [Example 1413, (S)-(4-(4-(difluoromethyl)pyrazolo[1,5-a]pyridin-2-yl)-6,7-dihydro-1H-imidazo[4,5-c]pyridin-5(4H)-yl)(5-(pyrimidin-2-yl)-1,3,4-oxadiazol-2-yl)methanone] | 0.5 to 1 |
| Cc1cccn2nc([C@@H]3c4nc[nH]c4CCN3C(=O)c3nnc(-c4cc(C)n(C)n4)o3)cc12 [Example 854, (S)-(5-(1,5-dimethyl-1H-pyrazol-3-yl)-1,3,4-oxadiazol-2-yl)(4-(4-methylpyrazolo[1,5-a]pyridin-2-yl)-6,7-dihydro-1H-imidazo[4,5-c]pyridin-5(4H)-yl)methanone] | < 0.5 |
| O=C(c1oc(-c2ccccn2)nc1C(F)F)N1CCc2[nH]cnc2[C@H]1c1cc2ccccn2n1 [Example 644, (S)-(4-(difluoromethyl)-2-(pyridin-2-yl)oxazol-5-yl)(4-(pyrazolo[1,5-a]pyridin-2-yl)-6,7-dihydro-1H-imidazo[4,5-c]pyridin-5(4H)-yl)methanone] | < 0.5 |
| COc1cccn2nc([C@@H]3c4nc[nH]c4CCN3C(=O)c3cc(C)nn3C)cc12 [Example 918, (S)-(1,3-dimethyl-1H-pyrazol-5-yl)(4-(4-methoxypyrazolo[1,5-a]pyridin-2-yl)-6,7-dihydro-1H-imidazo[4,5-c]pyridin-5(4H)-yl)methanone] | < 0.5 |
| CC1(c2nnc(C(=O)N3CCc4[nH]cnc4[C@@H]3c3cc4cccc(C(F)(F)F)n4n3)o2)CC1 [Example 1355, (R)-(5-(1-methylcyclopropyl)-1,3,4-oxadiazol-2-yl)(4-(7-(trifluoromethyl)pyrazolo[1,5-a]pyridin-2-yl)-6,7-dihydro-1H-imidazo[4,5-c]pyridin-5(4H)-yl)methanone] | 1 to 5 |
| O=C(c1nnc(C2CC2)o1)N1CCc2[nH]cnc2[C@@H]1c1cc2c(Cl)cccn2n1 [Example 1095, (R)-(4-(4-chloropyrazolo[1,5-a]pyridin-2-yl)-6,7-dihydro-1H-imidazo[4,5-c]pyridin-5(4H)-yl)(5-cyclopropyl-1,3,4-oxadiazol-2-yl)methanone] | > 5 |

Next, values leading:

| AC50 [µM] | Compound |
| --- | --- |
| < 0.5 | Cn1nc(C(F)F)cc1C(=O)N1CCc2[nH]cnc2[C@H]1c1cc2c(F)cccn2n1 [Example 864, (S)-(3-(difluoromethyl)-1-methyl-1H-pyrazol-5-yl)(4-(4-fluoropyrazolo[1,5-a]pyridin-2-yl)-6,7-dihydro-1H-imidazo[4,5-c]pyridin-5(4H)-yl)methanone] |
| > 5 | O=C(c1cnn2ccccc12)N1CCc2[nH]cnc2[C@@H]1c1cc2c(C(F)F)cccn2n1 [Example 1731, (R)-(4-(4-(difluoromethyl)pyrazolo[1,5-a]pyridin-2-yl)-6,7-dihydro-1H-imidazo[4,5-c]pyridin-5(4H)-yl)(pyrazolo[1,5-a]pyridin-3-yl)methanone] |
| < 0.5 | O=C(c1nnc(-c2cnccn2)o1)N1CCc2[nH]cnc2[C@H]1c1cc2c(C(F)(F)F)cccn2n1 [Example 1300, (S)-(5-(pyrazin-2-yl)-1,3,4-oxadiazol-2-yl)(4-(4-(trifluoromethyl)pyrazolo[1,5-a]pyridin-2-yl)-6,7-dihydro-1H-imidazo[4,5-c]pyridin-5(4H)-yl)methanone] |
